Results: patent US20250002507A1, “7,8-DIHYDRO-5H-1,6-NAPHTHYRIDINE DERIVATIVES AS POSITIVE ALLOSTERIC MODULATORS OF THE MUSCARINIC ACETYLCHOLINE RECEPTOR M4 FOR TREATING NEUROLOGICAL AND PSYCHIATRIC DISORDERS” (Vanderbilt University, priority 2021, published 2025)
Where two headings read alike, the source gives them in different places.

Biological target: T1, Human M4 (Homo sapiens, UniProt P08173)
T1 construct: expressed in transfected cells
T1 sequence (P08173 1-479): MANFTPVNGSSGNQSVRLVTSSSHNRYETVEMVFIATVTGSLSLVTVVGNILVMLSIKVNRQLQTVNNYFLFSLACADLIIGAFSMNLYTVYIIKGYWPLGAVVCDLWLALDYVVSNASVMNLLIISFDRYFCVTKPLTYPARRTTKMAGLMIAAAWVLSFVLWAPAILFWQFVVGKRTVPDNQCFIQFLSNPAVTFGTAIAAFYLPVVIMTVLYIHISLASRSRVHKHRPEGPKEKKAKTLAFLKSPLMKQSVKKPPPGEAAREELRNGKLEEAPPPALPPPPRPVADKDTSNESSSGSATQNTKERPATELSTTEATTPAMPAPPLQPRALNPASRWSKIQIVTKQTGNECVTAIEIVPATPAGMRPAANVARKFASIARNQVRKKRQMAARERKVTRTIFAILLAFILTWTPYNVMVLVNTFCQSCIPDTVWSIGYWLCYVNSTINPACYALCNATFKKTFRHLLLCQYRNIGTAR
Experiment: mAChR M4 cell-based functional assay (calcium flux, potentiation of EC20 acetylcholine response), hM4-Gqi5 CHO-K1 cells
Conditions: for Emax at 30 µM: CHO-K1, Human M4, % ACh maximum at 30 μM, read-out: Emax (% ACh maximum at 30 μM); for EC50: potentiation of EC20 acetylcholine response, calcium flux, CHO-K1 cells, read-out: Human M4 EC50
Outline: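 Positive allosteric modulation was scored as a concentration-dependent rise in the response to an EC20 dose of acetylcholine, added 144 s after the compound. Human M4-Gqi5 CHO-K1 cells carried Fluo-4 dye, and compounds ran as 11-point, 3-fold dilution series. EC50 and Emax came from four-parameter logistic fits of the FDSS fluorescence-ratio traces.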

SMILES	Emax at 30 µM (Table 3)	EC50 (Table 3)	Emax at 30 µM (Table 4)	EC50 (Table 4)
Cc1cc2nnc(C(F)(F)F)n2nc1N1CCc2ncc(Oc3cc(F)ccc3F)cc2C1 [Compound 298, 3-(2,5-difluorophenoxy)-6-(7-methyl-3-(trifluoromethyl)-[1,2,4]triazolo[4,3-b]pyridazin-6-yl)-5,6,7,8-tetrahydro-1,6-naphthyridine]	109%	379 nM		
Cc1c(N2CCc3ncc(Oc4ccc(F)cc4F)cc3C2)nn2c(C(F)(F)F)nnc2c1C [Compound 299, 3-(2,4-difluorophenoxy)-6-(7,8-dimethyl-3-(trifluoromethyl)-[1,2,4]triazolo[4,3-b]pyridazin-6-yl)-5,6,7,8-tetrahydro-1,6-naphthyridine]	111%	216 nM		
Cc1c(N2CCc3ncc(Oc4cccc(F)c4F)cc3C2)nn2c(C(F)(F)F)nnc2c1C [Compound 300, 3-(2,3-difluorophenoxy)-6-(7,8-dimethyl-3-(trifluoromethyl)-[1,2,4]triazolo[4,3-b]pyridazin-6-yl)-5,6,7,8-tetrahydro-1,6-naphthyridine]	87%	969 nM		
Cc1c(N2CCc3ncc(Oc4cc(F)ccc4F)cc3C2)nn2c(C(F)(F)F)nnc2c1C [Compound 301, 3-(2,5-difluorophenoxy)-6-(7,8-dimethyl-3-(trifluoromethyl)-[1,2,4]triazolo[4,3-b]pyridazin-6-yl)-5,6,7,8-tetrahydro-1,6-naphthyridine]	85%	820 nM		
Cc1c(N2CCc3ncc(Oc4ccc(F)cc4F)cc3C2)nn2cnnc2c1C [Compound 302, 3-(2,4-difluorophenoxy)-6-(7,8-dimethyl-[1,2,4]triazolo[4,3-b]pyridazin-6-yl)-5,6,7,8-tetrahydro-1,6-naphthyridine]	93%	177 nM		
Cc1c(N2CCc3ncc(Oc4cc(F)ccc4F)cc3C2)nn2cnnc2c1C [Compound 303, 3-(2,5-difluorophenoxy)-6-(7,8-dimethyl-[1,2,4]triazolo[4,3-b]pyridazin-6-yl)-5,6,7,8-tetrahydro-1,6-naphthyridine]	96%	86 nM		
Cc1c(N2CCc3ncc(Oc4cccc(F)c4F)cc3C2)nn2cnnc2c1C [Compound 304, 3-(2,3-difluorophenoxy)-6-(7,8-dimethyl-[1,2,4]triazolo[4,3-b]pyridazin-6-yl)-5,6,7,8-tetrahydro-1,6-naphthyridine]			93%	348 nM
Cc1c(N2CCc3ncc(OCC(F)(F)F)cc3C2)nn2cnnc2c1C [Compound 305, 6-(7,8-dimethyl-[1,2,4]triazolo[4,3-b]pyridazin-6-yl)-3-(2,2,2-trifluoroethoxy)-5,6,7,8-tetrahydro-1,6-naphthyridine]			112%	1870 nM
Cc1c(N2CCc3ncc(N4CC(C)Cn5nccc54)cc3C2)nn2c(C(F)(F)F)nnc2c1C (centres unmarked) [Compound 306, 6-(7,8-dimethyl-3-(trifluoromethyl)-[1,2,4]triazolo[4,3-b]pyridazin-6-yl)-3-(6-methyl-6,7-dihydropyrazolo[1,5-a]pyrimidin-4(5H)-yl)-5,6,7,8-tetrahydro-1,6-naphthyridine]			102%	143 nM
Cc1c(N2Cc3cc(C(F)(F)F)cnc3CC2C)nn2cnnc2c1C (centres unmarked) [Compound 307, 6-(7,8-Dimethyl-[1,2,4]triazolo[4,3-b]pyridazin-6-yl)-7-methyl-3-(trifluoromethyl)-5,6,7,8-tetrahydro-1,6-naphthyridine]			96%	299 nM
Cc1c(N2CCc3ncc(Cc4ccccc4F)cc3C2)nn2cnnc2c1C [Compound 308, 6-(7,8-dimethyl-[1,2,4]triazolo[4,3-b]pyridazin-6-yl)-3-(2-fluorobenzyl)-5,6,7,8-tetrahydro-1,6-naphthyridine]			91%	110 nM
Cc1c(N2CCc3ncc(Cc4ccccc4F)cc3C2)nn2c(C(F)(F)F)nnc2c1C [Compound 309, 6-(7,8-dimethyl-3-(trifluoromethyl)-[1,2,4]triazolo[4,3-b]pyridazin-6-yl)-3-(2-fluorobenzyl)-5,6,7,8-tetrahydro-1,6-naphthyridine]			83%	1410 nM
Cc1ccc(Oc2cnc3c(c2)CN(c2nn4cnnc4cc2C)CC3)c(F)c1 [Compound 310, 3-(2-fluoro-4-methylphenoxy)-6-(7-methyl-[1,2,4]triazolo[4,3-b]pyridazin-6-yl)-5,6,7,8-tetrahydro-1,6-naphthyridine]			81%	182 nM
Cc1c(N2CCc3ncc(Cc4cccc(F)c4)cc3C2)nn2cnnc2c1C [Compound 311, 6-(7,8-dimethyl-[1,2,4]triazolo[4,3-b]pyridazin-6-yl)-3-(3-fluorobenzyl)-5,6,7,8-tetrahydro-1,6-naphthyridine]			81%	246 nM
Cc1c(N2CCc3ncc(Cc4cccc(F)c4)cc3C2)nn2c(C(F)(F)F)nnc2c1C [Compound 312, 6-(7,8-dimethyl-3-(trifluoromethyl)-[1,2,4]triazolo[4,3-b]pyridazin-6-yl)-3-(3-fluorobenzyl)-5,6,7,8-tetrahydro-1,6-naphthyridine]			60%	1800 nM
Cc1c(N2CCc3ncc(N4CCO[C@H](C)C4)cc3C2)nn2c(C(F)(F)F)nnc2c1C [Compound 313, (R)-4-(6-(7,8-dimethyl-3-(trifluoromethyl)-[1,2,4]triazolo[4,3-b]pyridazin-6-yl)-5,6,7,8-tetrahydro-1,6-naphthyridin-3-yl)-2-methylmorpholine]			82%	296 nM
Cc1c(N2CCc3ncc(N4CCOC[C@H]4C)cc3C2)nn2c(C(F)(F)F)nnc2c1C [Compound 314, (R)-4-(6-(7,8-dimethyl-3-(trifluoromethyl)-[1,2,4]triazolo[4,3-b]pyridazin-6-yl)-5,6,7,8-tetrahydro-1,6-naphthyridin-3-yl)-3-methylmorpholine]			98%	321 nM
Cc1c(N2CCc3ncc(N4CCOC[C@@H]4C)cc3C2)nn2c(C(F)(F)F)nnc2c1C [Compound 315, (S)-4-(6-(7,8-dimethyl-3-(trifluoromethyl)-[1,2,4]triazolo[4,3-b]pyridazin-6-yl)-5,6,7,8-tetrahydro-1,6-naphthyridin-3-yl)-3-methylmorpholine]			85%	1900 nM
Cc1c(N2CCc3ncc(N4CC5CC4CO5)cc3C2)nn2c(C(F)(F)F)nnc2c1C (centres unmarked) [Compound 316, 5-(6-(7,8-dimethyl-3-(trifluoromethyl)-[1,2,4]triazolo[4,3-b]pyridazin-6-yl)-5,6,7,8-tetrahydro-1,6-naphthyridin-3-yl)-2-oxa-5-azabicyclo[2.2.1]heptane]			78%	573 nM
COC1CCN(c2cnc3c(c2)CN(c2nn4c(C(F)(F)F)nnc4c(C)c2C)CC3)CC1 [Compound 317, 6-(7,8-dimethyl-3-(trifluoromethyl)-[1,2,4]triazolo[4,3-b]pyridazin-6-yl)-3-(4-methoxypiperidin-1-yl)-5,6,7,8-tetrahydro-1,6-naphthyridine]			84%	1400 nM
Cc1c(N2CCc3ncc(N4C[C@@H](C)O[C@@H](C)C4)cc3C2)nn2c(C(F)(F)F)nnc2c1C [Compound 318, (2R,6S)-4-(6-(7,8-dimethyl-3-(trifluoromethyl)-[1,2,4]triazolo[4,3-b]pyridazin-6-yl)-5,6,7,8-tetrahydro-1,6-naphthyridin-3-yl)-2,6-dimethylmorpholine]			80%	2150 nM
Cc1cc2nnc(C(F)(F)F)n2nc1N1CCc2ncc(C(F)(F)F)cc2C1 [Compound 319, 6-(7-methyl-3-(trifluoromethyl)-[1,2,4]triazolo[4,3-b]pyridazin-6-yl)-3-(trifluoromethyl)-5,6,7,8-tetrahydro-1,6-naphthyridine]			96%	794 nM
Cc1cc2n(n1)CCCN2c1cnc2c(c1)CN(c1nn3c(C(F)(F)F)nnc3c(C)c1C)CC2 [Compound 320, 6-(7,8-dimethyl-3-(trifluoromethyl)-[1,2,4]triazolo[4,3-b]pyridazin-6-yl)-3-(2-methyl-6,7-dihydropyrazolo[1,5-a]pyrimidin-4(5H)-yl)-5,6,7,8-tetrahydro-1,6-naphthyridine]			76%	121 nM
Cc1c(N2CCc3ncc(C(F)(F)F)cc3C2)nn2c(C(F)(F)F)nnc2c1C [Compound 321, 6-(7,8-dimethyl-3-(trifluoromethyl)-[1,2,4]triazolo[4,3-b]pyridazin-6-yl)-3-(trifluoromethyl)-5,6,7,8-tetrahydro-1,6-naphthyridine]			72%	270 nM
Cc1c(N2CCc3ncc(N4CCO[C@H](c5ccccc5)C4)cc3C2)nn2c(C(F)(F)F)nnc2c1C [Compound 322, (R)-4-(6-(7,8-dimethyl-3-(trifluoromethyl)-[1,2,4]triazolo[4,3-b]pyridazin-6-yl)-5,6,7,8-tetrahydro-1,6-naphthyridin-3-yl)-2-phenylmorpholine]			96%	3140 nM
